Test results taken from patent publication US20210275545A1, “METHOD OF TREATING CANCER PREFERABLY CHARACTERIZED BY EXPRESSION OF A FUSION PROTEIN COMPRISING A MEMBER OF THE E-TWENTY-SIX FAMILY BY ADMINISTERING AN AGENT THAT INHIBITS THE SYNTHESIS AND/OR ACTIVITY OF CORTISOL” (Yeda Research and Development Co. Ltd., priority 2018, published 2021).

Columns and labels:
[1] = tested on: A673 tumors; assay: Immunoblotting of A673 tumor extracts; format: in vivo, SCID mice
Experimental: FIGS. 13A-B: A GR antagonist and a cortisol-lowering drug induce markers of cell death in animal models of Ewing's sarcoma. (A) RD-ES tumors presented in FIG. 6A were extracted and analyzed using immunoblotting and the indicated antibodies. Note that tumors from three different mice per group were analyzed. (B) Whole extracts prepared from the tumors presented in FIG. 6D were analyzed using immunoblotting and the indicated antibodies. Note that tumors from three different mice per group were analyzed.
ES animal model studies: All animal experiments were approved by the Weizmann Institute's Animal Care and Use Committee. RD-ES cells and A673 cells (2.5×10^6) were inoculated subcutaneously in the right legs of female SCID mice (6 weeks old). Tumor growth was monitored once every 3 days using a caliper. […] Mice were euthanized when tumor size reached 800-900 mm^3. For metastasis assays, luciferase-labeled TC-71 cells (10^6) were injected orthotopically into the tibia of female SCID mice. Once the primary tumor reached the allowed size limit, we excised the lungs and examined metastases using luciferase bioluminescence imaging.

[2] = tested on: A673 xenograft; assay: A673 xenograft tumor growth; format: in vivo, SCID mice; conditions: 25 mg/kg daily
Excerpt: FIGS. 6A-E. A GR antagonist and a cortisol-lowering drug impede growth of human xenograft models of Ewing's sarcoma. (A) RD-ES cells (2×10^6) were implanted subcutaneously in the right flank of SCID mice. […] The means of tumor volumes (+SEM) are shown. […] (B) Shown are representative images of immunofluorescent staining for KI67 in paraffin-embedded sections of tumors from A, using an antibody against KI67. Scale bars, 100 μm. Also shown is the scatter plot depicting quantification of KI67 staining in randomly selected 4 fields of a representative tumor from each group. […] (C and D) A673 cells (2×10^6) were implanted in female SCID mice. […] Each group was daily treated with either vehicle, or Metyrapone (25 mg/kg) and tumorigenic growth was monitored. Actual tumor volumes (±SEM) are presented. Also shown are tumors harvested from each group of animals; **p<0.001. (E) TC-71 cells (10^6) engineered to stably express luciferase were injected into the tibia of female SCID mice (5 weeks old; 7 mice per group). […] The control group was similarly treated with the solvent (0.1% tween 80). When the primary tumor reached 10% of body weight, the lungs were excised and examined for metastasis using luciferase bioluminescence imaging. […] Luminescence was quantified and presented in a bar graph. […] Tumor growth was monitored once every 3 days using a caliper. […]

[3] = molecular target: T1, MR and ERG (Homo sapiens, UniProt P08235); assay: PCA, Gluc1-ERG + MR-Gluc2; format: cell-based; conditions: DEX 1 μM, 60 minutes
T1 construct: expressed in transfected cells; host or cells: HEK-293T
T1 sequence (P08235 1-984): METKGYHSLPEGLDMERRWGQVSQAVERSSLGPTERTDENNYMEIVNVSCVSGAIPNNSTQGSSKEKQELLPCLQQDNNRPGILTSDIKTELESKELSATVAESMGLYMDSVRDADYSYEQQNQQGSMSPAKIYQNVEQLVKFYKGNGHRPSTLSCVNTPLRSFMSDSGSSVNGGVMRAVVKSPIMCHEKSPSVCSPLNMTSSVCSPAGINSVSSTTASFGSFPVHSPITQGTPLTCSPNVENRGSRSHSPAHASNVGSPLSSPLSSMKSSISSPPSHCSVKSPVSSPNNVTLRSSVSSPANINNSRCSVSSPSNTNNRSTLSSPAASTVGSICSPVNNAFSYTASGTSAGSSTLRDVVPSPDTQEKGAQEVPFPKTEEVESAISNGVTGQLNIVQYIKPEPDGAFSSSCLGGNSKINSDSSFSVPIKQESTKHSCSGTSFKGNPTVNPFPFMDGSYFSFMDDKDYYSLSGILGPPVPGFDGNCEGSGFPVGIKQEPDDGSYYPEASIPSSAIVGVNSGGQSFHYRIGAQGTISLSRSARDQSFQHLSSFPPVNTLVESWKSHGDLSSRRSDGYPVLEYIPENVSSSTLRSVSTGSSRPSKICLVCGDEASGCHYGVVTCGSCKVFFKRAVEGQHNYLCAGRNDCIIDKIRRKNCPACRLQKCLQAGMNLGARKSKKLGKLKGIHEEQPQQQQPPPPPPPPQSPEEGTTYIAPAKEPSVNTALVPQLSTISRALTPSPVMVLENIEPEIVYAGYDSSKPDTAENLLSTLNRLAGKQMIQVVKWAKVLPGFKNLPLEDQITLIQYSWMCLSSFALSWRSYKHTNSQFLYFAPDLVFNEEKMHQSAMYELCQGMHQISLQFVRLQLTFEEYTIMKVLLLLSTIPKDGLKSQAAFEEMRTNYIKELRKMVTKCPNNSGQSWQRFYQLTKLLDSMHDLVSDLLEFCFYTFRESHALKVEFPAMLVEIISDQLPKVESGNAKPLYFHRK
T1 sequence (P11308 1-486 isoform P11308-3 partner): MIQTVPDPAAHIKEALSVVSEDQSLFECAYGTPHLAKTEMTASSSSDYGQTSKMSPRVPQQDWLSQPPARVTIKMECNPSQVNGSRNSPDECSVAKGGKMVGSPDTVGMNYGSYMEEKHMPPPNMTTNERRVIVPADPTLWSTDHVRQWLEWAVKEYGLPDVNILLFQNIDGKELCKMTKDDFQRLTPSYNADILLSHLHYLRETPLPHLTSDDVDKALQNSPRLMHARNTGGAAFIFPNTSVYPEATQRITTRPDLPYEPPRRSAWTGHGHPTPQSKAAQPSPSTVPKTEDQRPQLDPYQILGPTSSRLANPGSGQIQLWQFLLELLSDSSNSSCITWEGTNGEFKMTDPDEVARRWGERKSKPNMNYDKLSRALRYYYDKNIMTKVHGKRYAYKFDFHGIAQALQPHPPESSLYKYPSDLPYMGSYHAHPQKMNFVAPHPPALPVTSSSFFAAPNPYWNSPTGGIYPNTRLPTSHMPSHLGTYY
Experimental: Cells were then lysed and luminescence was determined.

[4] = tested on: glucocorticoid response element (GRE); conditions: naïve cells, endogenous GR; 100 nM, 24 hours
Experimental: HEK-293T cells (1.2×10^4) were seeded in 48-well plates. […] In addition, cells were co-transfected with increasing amounts of a GR expression vector (A), a FLI1-encoding vector (B) or with a combination of both a FLI1 vector and a vector encoding GR, either wild type (C) or a mutant receptor (GRdim−, panel D). Luciferase activity was determined, in biological triplicates, 48 hours later and presented in bar plots. Cells that were pre-transfected with the reporter plasmid were used for normalization. *, p≤0.05; ***, p≤0.001. […] This was followed by cell lysis and determination of luciferase activity in biological triplicates.
Luciferase-reporter assays: Cells were co-transfected with a luciferase plasmid containing the consensus glucocorticoid response element (GRE) along with pGL3-Control (Promega, Madison, Wis.). Luciferase activity was determined using the dual-luciferase reporter assay system (Promega). Firefly luciferase luminescence values were normalized to Renilla luminescence.

[5] = molecular target: T2, GR and ERG (Homo sapiens, UniProt P04150)
Experimental: (§1) (A) The scheme presents the full length Gaussia luciferase protein, along with either the amino-terminal segment (Gluc1), which was fused to an ETS family transcription factor, or the carboxyl terminal segment (Gluc2), which was fused to GR. Amino acid numbers are indicated. cDNAs encoding most members of the ETS family (16 members altogether) were cloned downstream to Gluc1. […] (B) HEK-293T cells (6×10^3) were seeded in 96-well plates. On the next day, cells were transfected with combinations of the Gluc1 plasmid, encoding a fused ETS family member, and the Gluc2 plasmid encoding a fused full-length GR. […] Cells were then lysed and luminescence was determined in biological triplicates. […] (D and E) HEK-293T cells were seeded in 100-mm dishes. Once they reached sub-maximal density (70%), cells were starved overnight for serum factors. […] Cell extracts were then processed for co-immunoprecipitation assays, in which the endogenous FLI1 or ERG protein was immunoprecipitated using a specific antibody, and immunoblotting was performed using an antibody against GR. EB, empty beads; C, solvent control. Images shown are representative of three biological replicates.
(A) HEK-293T cells (6×10^3) were seeded in 96-well plates. On the next day, the cells were transfected with combinations of the Gluc1 plasmid, encoding fused FLI1 or ERG, and the Gluc2 plasmid encoding GR. […] Cells were then lysed and luminescence was determined in each sample. Luminescence of vehicle-treated cells was used for normalization. […] (B) HEK-293T cells were seeded on coverslips in 6-well plates. […] Images were processed using the Zeiss ZEN2011 software. […] Bars, 20 μm.
Protein-fragment complementation assays (PCA): PCA was performed as previously described.

[6] = molecular target: T2, GR and ERG; remark: listed apart in the source
Experimental: as §1
Proximity ligation assay (PLA), extraction of cells, co-immunoprecipitation and cell migration/invasion assays: These assays were performed exactly as recently reported.

T2 sequence (P04150 whole entry, the tested form may be a part): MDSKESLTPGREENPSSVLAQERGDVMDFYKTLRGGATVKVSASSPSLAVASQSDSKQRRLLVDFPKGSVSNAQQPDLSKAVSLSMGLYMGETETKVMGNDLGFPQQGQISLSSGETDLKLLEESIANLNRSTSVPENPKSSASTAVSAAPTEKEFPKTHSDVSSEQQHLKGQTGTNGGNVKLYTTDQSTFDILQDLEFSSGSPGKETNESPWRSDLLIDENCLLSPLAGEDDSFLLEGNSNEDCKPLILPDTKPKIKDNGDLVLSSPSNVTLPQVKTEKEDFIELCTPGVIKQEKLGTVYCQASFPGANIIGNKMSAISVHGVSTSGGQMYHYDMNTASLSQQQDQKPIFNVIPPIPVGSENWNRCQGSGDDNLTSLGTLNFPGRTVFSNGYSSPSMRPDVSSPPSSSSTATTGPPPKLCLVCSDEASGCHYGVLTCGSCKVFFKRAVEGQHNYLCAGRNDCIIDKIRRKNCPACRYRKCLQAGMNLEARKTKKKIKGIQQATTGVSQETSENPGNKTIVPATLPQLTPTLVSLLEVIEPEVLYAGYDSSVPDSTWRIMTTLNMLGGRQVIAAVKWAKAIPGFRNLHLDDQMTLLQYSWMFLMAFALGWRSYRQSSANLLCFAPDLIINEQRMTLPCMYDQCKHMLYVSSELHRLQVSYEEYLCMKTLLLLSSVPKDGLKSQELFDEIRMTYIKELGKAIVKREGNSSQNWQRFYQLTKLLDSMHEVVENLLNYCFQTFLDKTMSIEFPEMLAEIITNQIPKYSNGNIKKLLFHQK

| Structure (SMILES) | γH2AX in tumors [1] | tumor growth rates [2] | interaction between MR and ERG (PCA) [3] | increase of GRE activity (luciferase) [4] [fold] | luciferase activity (PCA), GR-ERG interaction [5] | time of peak of GR-ERG signals after stimulation (PCA) [5] | co-immunoprecipitation of GR and ERG [6] |
| --- | --- | --- | --- | --- | --- | --- | --- |
| CC(C)(C(=O)c1cccnc1)c1cccnc1 [metyrapone] | elevated | clear and statistically significant decrease |  |  |  |  |  |
| C[C@@H]1C[C@H]2[C@@H]3CCC4=CC(=O)C=C[C@]4(C)[C@@]3(F)[C@@H](O)C[C@]2(C)[C@@]1(O)C(=O)CO [DEX, dexamethasone] |  |  | stimulated strong interactions | 40 | highly significant increases | peaked earlier | enhanced |
